# Reference: US10413583B2, “Synthetic substrates for enzymes that catalyze reactions of modified cysteines and related methods” (The University of Chicago, priority 2016, dated 2019)
# System: HEPG2 cells
# Assay: Epifluorescent imaging of DPP-5 and diacetyl rhodol in HepG2 cells (PalmB, ML348, ML349, palmitate)
# Assay type: cell-based, human
# Conditions: for decrease in intensity of the signal from DPP-5: 10 μM inhibitor
# Procedure: 250,000 HEK293T cells/well, 120,000 HeLa cells/well, or 100,000 HepG2 cells/well were plated in 700 μL DMEM glutamax (10% FBS+1% P/S) into 4-well chambered imaging dish (D35C4-20-1.5-N, Cellvis, Mountain View, Calif., United States of America), which were precoated with 5 μg Poly-D-lysine (30-70 KDa, Alfa Aesar, Haverhill, Mass., United States of America) for 2 h. After 20-24 h, the media was replaced by 1 μM Hoechst 33342 and DMSO/5 μM PalmB in 400 μL DMEM glutamax. After 30 min of incubation at 37° C., the cells were washed with 400 μL of Live Cell Imaging Solution and replaced by 1 μM DPP-5 with DMSO or 5 μM of PalmB in Live Cell Imaging Solution. After 20 min of incubation at 37° C., images were obtained on an inverted epifluorescence microscope (Olympus IX83; Olympus Corporation, Tokyo, Japan) attached with EMCCD camera (Photometrics EVOLVE™ Delta, Photometrics, Tucson, Ariz., United States of America) with 40× oil objective (N/A 1.3) for DPP-5 (excitation filter 500/20, dichroic chroma 89007, emission filter 535/30), Hoechst 33342 (excitation filter 402/15, emission filter 455/50, dichroic chroma 89013), and brightfield. Analyses were performed in ImageJ. For data analysis, the average fluorescence intensity per image in each experimental condition was obtained by selecting ROI in Brightfield and applying that to the corresponding DPP-5 image, average background fluorescence intensity was subtracted and data was normalized to the average fluorescence intensity of the DMSO control. Each experiment was repeated in at least two biological replicates with identical results.
# 16,000 HepG2 cells/well were plated in 100 μL DMEM glutamax (10% fetal bovine serum (FBS)) into 4 wells of a 96-well chambered imaging dish (P96-1-N, Cellvis, Mountain View Calif., United States of America), which were precoated with 0.7 μg Poly-D-lysine (30-70 KDa, Alfa Aesar, Haverhill, Mass., United States of America) for 2 hrs. After 24 h, cells were washed with Live Cell Imaging Solution and replaced by 1 μM Hoechst 33342 and DMSO/10 μM ML348/10 μM ML349/10 μM of both ML348 and ML349 in 100 μL DMEM glutamax. After 30 min of incubation at 37° C., the cells were washed with 100 μL of Live Cell Imaging Solution and replaced by 1 μM DPP-5 in Live Cell Imaging Solution. After 20 min of incubation at 37° C., images were obtained on an inverted epifluorescence microscope (Leica DMi8; Leica Microsystems, Wetzlar, Germany) equipped with a camera (Hamamatsu Orca-Flash 4.0; Hamamatsu, Hamamatsu City, Japan) with 63× oil objective (N/A 1.4) and light source (Sutter Lamda XL, 300 W Xenon; Sutter Instrument, Novato, Calif., United States of America) for DPP-5 (YFP filter cube 1525306), Hoechst 33342 (DAPI filter cube), and brightfield using Leica LASX software (Leica Microsystems, Wetzlar, Germany). Analyses were performed in ImageJ. Each experiment was repeated in three biological replicates and 8-12 images were considered for plotting bar graphs for quantification. For detailed data analysis, the average fluorescence intensity per image in each experimental condition was obtained by selecting ROI in Brightfield and applying that to the corresponding DPP-5 image, average background fluorescence intensity was subtracted and data was normalized to the average fluorescence intensity of the control experiment. […] 250,000 HEK293T cells/well were plated in 700 μL DMEM glutamax (10% FBS+1% P/S) into three wells of a 4-well chambered imaging dish (D35C4-20-1.5-N, Cellvis, Mountain View, Calif., United States of America), which were precoated with 5 μg Poly-Dlysine (30-70 KDa, Alfa Aesar, Haverhill, Mass., United States of America) for 2 h. After 18 h, the media was replaced by 1 μM Hoechst 33342 in 400 μL DMEM glutamax. […] After 20 min of incubation at 37° C., images were obtained and analyzed as described above. […]
smiles,measurement,setting,value
CCCCCCCCCCCCCCCC(=O)SC[C@@H](C(=O)NC)N(C)C(=O)Oc1ccc2c(c1)Oc1cc(N3CCN(C(=O)CCC(=O)O)CC3)ccc1C21OC(=O)c2ccccc21 (some centres unmarked) [DPP-5],probe fluorescent signal in cells,1 μM probe for 20 minutes,robust intracellular fluorescent signal
O=C(CN1CCN(C(=O)c2ccco2)CC1)Nc1cc(C(F)(F)F)ccc1Cl [ML348],decrease in intensity of the signal from DPP-5,1 μM DPP-5,about 30%
COc1ccc(N2CCN(C(=O)c3cc4c(s3)-c3ccccc3S(=O)(=O)C4)CC2)cc1 [ML349],decrease in intensity of the signal from DPP-5,1 μM DPP-5,no change in signal
"CCCCCCCCCC[C@@H]1C(=O)O[C@H]1CCc1ccc(OC)c(OC)c1 [PalmB, palmostatin B]",turn-on response of DPP-5 blocked,"5 μM PalmB pretreatment, 1 μM DPP-5",more than 95%
same,effect on DPP-5 signal in palmitate experiment,"1% BSA with or without 1 mM palmitate, 5 μM PalmB",reduces the intensity of the DPP-5 signal
